This is an account of results in the supplement of paper PMC12076712.

Holding throughout (assay): pIC50, kinobeads binding competition
The target in one experiment is T1, LATS2 (UniProt Q9NRM7).
T1 sequence (whole entry): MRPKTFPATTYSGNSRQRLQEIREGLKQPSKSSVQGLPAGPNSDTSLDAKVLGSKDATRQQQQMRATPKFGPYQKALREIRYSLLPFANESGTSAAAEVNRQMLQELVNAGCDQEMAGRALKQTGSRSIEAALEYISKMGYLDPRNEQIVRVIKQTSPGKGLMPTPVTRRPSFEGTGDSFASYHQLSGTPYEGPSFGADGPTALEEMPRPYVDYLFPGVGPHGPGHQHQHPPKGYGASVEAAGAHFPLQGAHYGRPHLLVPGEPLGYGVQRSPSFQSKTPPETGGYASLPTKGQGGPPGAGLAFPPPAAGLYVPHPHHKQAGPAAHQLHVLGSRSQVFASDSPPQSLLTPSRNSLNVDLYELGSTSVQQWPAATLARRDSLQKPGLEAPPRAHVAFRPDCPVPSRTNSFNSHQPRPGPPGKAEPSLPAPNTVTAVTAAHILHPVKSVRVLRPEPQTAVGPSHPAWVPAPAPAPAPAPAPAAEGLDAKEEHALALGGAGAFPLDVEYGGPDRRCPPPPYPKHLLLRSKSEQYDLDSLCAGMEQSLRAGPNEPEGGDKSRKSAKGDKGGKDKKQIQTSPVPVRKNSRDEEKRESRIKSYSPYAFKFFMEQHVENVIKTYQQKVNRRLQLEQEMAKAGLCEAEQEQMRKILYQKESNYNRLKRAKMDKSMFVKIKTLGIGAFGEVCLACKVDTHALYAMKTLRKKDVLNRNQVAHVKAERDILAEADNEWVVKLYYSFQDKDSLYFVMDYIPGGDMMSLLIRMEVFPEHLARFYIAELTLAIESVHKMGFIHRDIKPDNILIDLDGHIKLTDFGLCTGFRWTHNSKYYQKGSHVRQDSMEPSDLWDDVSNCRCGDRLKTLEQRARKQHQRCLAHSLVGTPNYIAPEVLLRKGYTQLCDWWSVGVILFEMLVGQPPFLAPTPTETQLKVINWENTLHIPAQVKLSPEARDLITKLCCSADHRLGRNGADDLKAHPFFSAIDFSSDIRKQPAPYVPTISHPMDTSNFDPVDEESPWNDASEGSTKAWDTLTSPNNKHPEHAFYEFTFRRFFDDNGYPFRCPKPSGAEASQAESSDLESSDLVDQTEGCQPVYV
A digest of the protocol:
(§1)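 To obtain pIC50, fold changes versus vehicle were fitted to logistic dose-response curves (R drc package) across biological duplicates. Protein binding to Kinobeads was quantified by TMT10 LC-MS/MS of digested bead-bound proteins. Treatments used nine concentrations with a top of 30 μM, applied to live Jurkat cells in 1:4 steps for 60 min at 37 °C before lysis, or to Jurkat lysate or a 1:1:1:1 HEK293/K-562/HepG2/placenta lysate mix in 1:5 steps for 60 min at 4 °C.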

The next experiment has as its target CLK3 (UniProt P49761). A digest of the protocol: as §1
The next experiment addresses AKT2 (UniProt P31751). A digest of the protocol:
as §1

Another experiment addresses T2, ILK (UniProt Q13418).
T2 sequence (whole entry): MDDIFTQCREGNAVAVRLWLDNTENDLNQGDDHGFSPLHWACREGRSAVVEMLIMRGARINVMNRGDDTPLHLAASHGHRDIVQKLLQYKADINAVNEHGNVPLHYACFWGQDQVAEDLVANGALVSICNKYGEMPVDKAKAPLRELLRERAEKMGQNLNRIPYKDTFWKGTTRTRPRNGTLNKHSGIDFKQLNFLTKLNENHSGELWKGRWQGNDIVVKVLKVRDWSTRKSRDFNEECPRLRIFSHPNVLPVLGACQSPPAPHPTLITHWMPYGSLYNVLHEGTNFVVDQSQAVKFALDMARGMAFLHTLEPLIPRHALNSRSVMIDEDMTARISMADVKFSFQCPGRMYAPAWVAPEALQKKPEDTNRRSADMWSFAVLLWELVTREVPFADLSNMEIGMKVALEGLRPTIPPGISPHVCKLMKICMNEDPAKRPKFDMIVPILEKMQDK
A digest of the protocol: as §1

For the next experiment, the target named is T3, SGK2 (UniProt Q9HBY8).
T3 sequence (whole entry): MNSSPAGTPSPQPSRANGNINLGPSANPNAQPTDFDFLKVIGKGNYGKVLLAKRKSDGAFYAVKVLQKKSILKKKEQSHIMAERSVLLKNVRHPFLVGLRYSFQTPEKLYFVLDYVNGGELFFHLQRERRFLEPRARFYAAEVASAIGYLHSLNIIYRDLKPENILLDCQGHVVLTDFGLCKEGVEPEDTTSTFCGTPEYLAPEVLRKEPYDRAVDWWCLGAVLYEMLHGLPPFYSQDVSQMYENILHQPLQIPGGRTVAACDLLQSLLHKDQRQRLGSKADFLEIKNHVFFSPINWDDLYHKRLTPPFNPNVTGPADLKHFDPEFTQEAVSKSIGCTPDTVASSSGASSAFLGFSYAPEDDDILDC
To be noted: cell material: Lysate mix. A digest of the protocol:
as §1

Another experiment deals with CDK4 (UniProt P11802). The settings on record: cell material: Lysate mix. A digest of the protocol:
as §1

Chain of CDK4 (P11802 whole entry): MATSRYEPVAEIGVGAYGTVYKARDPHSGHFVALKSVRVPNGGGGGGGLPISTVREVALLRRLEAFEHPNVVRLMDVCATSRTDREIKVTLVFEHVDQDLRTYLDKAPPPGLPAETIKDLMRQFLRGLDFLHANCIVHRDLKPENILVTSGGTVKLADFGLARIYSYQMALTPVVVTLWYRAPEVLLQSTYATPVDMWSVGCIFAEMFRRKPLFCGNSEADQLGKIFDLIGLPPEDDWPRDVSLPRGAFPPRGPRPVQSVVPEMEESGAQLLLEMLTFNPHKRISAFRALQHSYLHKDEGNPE
Chain of CLK3 (P49761 whole entry, looked up): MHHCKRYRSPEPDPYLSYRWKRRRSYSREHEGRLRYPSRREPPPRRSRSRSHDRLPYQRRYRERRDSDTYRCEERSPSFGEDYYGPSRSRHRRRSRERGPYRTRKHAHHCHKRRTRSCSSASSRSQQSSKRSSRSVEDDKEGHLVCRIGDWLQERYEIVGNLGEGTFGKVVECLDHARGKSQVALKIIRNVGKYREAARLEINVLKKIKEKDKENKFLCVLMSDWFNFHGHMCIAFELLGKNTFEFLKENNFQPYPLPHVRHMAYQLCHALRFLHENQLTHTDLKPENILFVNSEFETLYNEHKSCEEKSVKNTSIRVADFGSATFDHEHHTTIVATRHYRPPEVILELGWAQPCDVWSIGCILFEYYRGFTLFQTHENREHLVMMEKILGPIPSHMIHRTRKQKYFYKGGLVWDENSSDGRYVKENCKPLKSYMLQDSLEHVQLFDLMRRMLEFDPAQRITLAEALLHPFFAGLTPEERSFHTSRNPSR
Chain of AKT2 (P31751 whole entry): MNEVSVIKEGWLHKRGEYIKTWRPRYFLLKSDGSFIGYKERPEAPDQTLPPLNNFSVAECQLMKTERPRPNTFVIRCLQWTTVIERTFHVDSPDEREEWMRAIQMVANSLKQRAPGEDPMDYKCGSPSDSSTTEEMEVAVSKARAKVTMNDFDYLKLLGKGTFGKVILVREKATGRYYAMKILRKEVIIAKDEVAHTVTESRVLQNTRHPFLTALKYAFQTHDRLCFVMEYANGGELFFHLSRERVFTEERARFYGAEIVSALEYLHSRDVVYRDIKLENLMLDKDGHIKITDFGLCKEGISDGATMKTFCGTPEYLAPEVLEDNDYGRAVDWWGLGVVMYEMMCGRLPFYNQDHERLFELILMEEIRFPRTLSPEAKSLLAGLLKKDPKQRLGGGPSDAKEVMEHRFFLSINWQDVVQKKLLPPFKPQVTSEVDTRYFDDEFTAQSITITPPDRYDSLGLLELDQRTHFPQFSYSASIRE

On to `O=C(NCCNC(=O)c1cc(Nc2cc(C3CC3)[nH]n2)nc(N2CCN(Cc3ccc(S(=O)(=O)F)cc3)CC2)n1)OC1CC/C=C/CCC1` (centres undefined), for which the pIC50 (in general, the negative decadic logarithm of the IC50, by convention in mol/L) is 5.54 on LATS2 (cell material: Jurkat cells); less than 4.52 on LATS2 (cell material: Jurkat lysate); less than 4.52 on LATS2 (cell material: Lysate mix); less than 4.52 at CLK3 (cell material: Jurkat lysate); less than 4.52 at CLK3 (cell material: Lysate mix); less than 4.52 on AKT2 (cell material: Jurkat cells). Also, the negative logarithm of the IC50 (pIC50) on ILK (cell material: Jurkat cells), on ILK (cell material: Jurkat lysate) and on ILK (cell material: Lysate mix) was less than 4.52 throughout.
For `Cc1cc(Nc2cc(C(=O)NCCNC(=O)OC3CC/C=C/CCC3)nc(N3CCN(Cc4ccc(S(=O)(=O)F)cc4)CC3)n2)n[nH]1` (centres undefined), the negative logarithm of the IC50 (pIC50) on LATS2 (cell material: Lysate mix), at SGK2, at CDK4 and on ILK (cell material: Lysate mix) was less than 4.52 in each case.
Turning to `CCNC(=O)c1cc(Nc2cc(C)[nH]n2)nc(N2CCN(Cc3ccc(S(=O)(=O)F)cc3)CC2)n1`, the figures for the pIC50 on CLK3 (cell material: Lysate mix), on SGK2 and at CDK4 were less than 4.52, 5.46 and less than 4.52, respectively.
With `C#CCNC(=O)c1cc(Nc2cc(C3CC3)[nH]n2)nc(N2CCN(Cc3ccc(S(=O)(=O)F)cc3)CC2)n1`, the pIC50 at LATS2 (cell material: Jurkat cells) is 5.82; at LATS2 (cell material: Lysate mix) it was 5.84; at CLK3 (cell material: Jurkat lysate) it was less than 4.52; at CLK3 (cell material: Lysate mix), 5.15; on AKT2 (cell material: Jurkat cells) it was 5.74; on SGK2 it was 6.52. The negative logarithm of the IC50 (pIC50) on ILK (cell material: Jurkat cells) is 5.41; at ILK (cell material: Jurkat lysate), less than 4.52.
Regarding `C#CCNC(=O)c1cc(Nc2cc(C)[nH]n2)nc(N2CCN(Cc3ccc(S(=O)(=O)F)cc3)CC2)n1`, the pIC50 on LATS2 (cell material: Lysate mix) was 4.77; at CLK3 (cell material: Lysate mix) it was less than 4.52; on SGK2 it was 5.8; on ILK (cell material: Lysate mix), less than 4.52.
`CCNC(=O)c1cc(Nc2cc(C3CC3)[nH]n2)nc(N2CCN(Cc3ccc(S(=O)(=O)F)cc3)CC2)n1`: the pIC50 is 5.31 on LATS2 (cell material: Lysate mix); 4.85 on CLK3 (cell material: Lysate mix); less than 4.52 at AKT2 (cell material: Lysate mix); 5.7 at SGK2; 5.05 at CDK4; less than 4.52 at ILK (cell material: Lysate mix).
